According to patent US11078170B2 (Assembly Biosciences, Inc., priority 2017, dated 2021):

system: HBV viral production from HepAD38 cells; assay: Activity of test compounds on viral production from HepAD38 cells (viral load by qPCR of HBV core sequence in supernatant); format: cell-based; details: Hepatitis B virus, 120 h, 5 days incubation, HBV DNA in supernatant by qPCR, top concentration 10 μM, read-out: Viral Load EC50 Activity range
How it was run: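 EC50 and CC50 come from four-parameter fits of supernatant viral load and CellTiter-Glo viability, respectively. Viral load was measured by core-region TaqMan qPCR against HBV DNA standards and compared with DMSO controls. Tet-free HepAD38 cells (50,000/well, 2% FBS) were exposed to compound, highest 10 μM, for 5 days at 37° C.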

Question: `Cc1nn(C)cc1-c1ccc([C@H]2C[C@@H](C(=O)Nc3ccc(F)c(Cl)c3)N(C)S(=O)(=O)N2)s1` [HBV-CSU-313-ISO-I, Cis-N-(3-chloro-4-fluorophenyl)-5-(5-(1,3-dimethyl-1H-pyrazol-4-yl)thiophen-2-yl)-2-methyl-1,2,6-thiadiazinane-3-carboxamide 1,1-dioxide] was tested. Which EC50 did it give?
Answer: The EC50 was less than 1 µM.

Question: Which EC50 does the source give for `Cc1sc([C@H]2C[C@@H](C(=O)Nc3ccc(F)c(Cl)c3)N(C)S(=O)(=O)N2)cc1-c1cnn(C)c1` [HBV-CSU-304-ISO-I, Cis-N-(3-Chloro-4-fluorophenyl)-2-methyl-5-(5-methyl-4-(1-methyl-1H-pyrazol-4-yl)thiophen-2-yl)-1,2,6-thiadiazinane-3-carboxamide 1,1-dioxide] here?
Answer: Its EC50 is less than 1 µM.

Question: How did the EC50 turn out when `CN(C(=O)C1CC(c2cccs2)NS(=O)(=O)N1C)c1ccc(F)c(Cl)c1` (stereo not drawn) [HBV-CSU-015, Cis-N-(3-Chloro-4-fluorophenyl)-N-2-dimethyl-5-(thiophen-2-yl)-1,2,6-thiadiazinane-3-carboxamide 1,1-dioxide] was run?
Answer: Its EC50 is 1 to 5 µM.

Question: With `CN1C(C(=O)Nc2ccc(F)c(Cl)c2)CC(c2ccc(O)c(Cl)c2)NS1(=O)=O` (stereo not drawn) [HBV-CSU-220, Cis-N-(3-chloro-4-fluorophenyl)-5-(3-chloro-4-hydroxyphenyl)-2-methyl-1,2,6-thiadiazinane-3-carboxamide 1,1-dioxide] as the compound, how does the EC50 read?
Answer: Its EC50 is less than 1 µM.

Question: Which EC50 does the source give for `C#CCN1[C@@H](C(=O)Nc2ccc(F)c(Cl)c2)C[C@@H](c2nccs2)NS1(=O)=O` [HBV-CSU-089-ISO-II, Cis-N-(3-chloro-4-fluorophenyl)-2-(prop-2-yn-1-yl)-5-(thiazol-2-yl)-1,2,6-thiadiazinane-3-carboxamide 1,1-dioxide] here?
Answer: Its EC50 is greater than 5 µM.

Question: Which EC50 does the source give for `CN1C(C(=O)Nc2ccc(F)c(Cl)c2)CC(c2cccnc2)NS1(=O)=O` (stereo not drawn) [HBV-CSU-033, Cis-N-(3-Chloro-4-fluorophenyl)-2-methyl-5-(pyridin-3-yl)-1,2,6-thiadiazinane-3-carboxamide 1,1-dioxide] here?
Answer: The EC50 was less than 1 µM.

Question: For `[2H]C([2H])([2H])N1C(C(=O)Nc2ccc(F)c(Cl)c2)CC(c2ccc(-c3cn(C([2H])([2H])[2H])cn3)s2)NS1(=O)=O` (stereo not shown) [HBV-CSU-374], which EC50 is on record?
Answer: Its EC50 is less than 1 µM.

Question: With `CN1C(C(=O)Nc2ccc(F)c(Br)c2)CC(c2cccs2)NS1(=O)=O` (racemic) [HBV-CSU-016, Cis-N-(3-Bromo-4-fluorophenyl)-2-methyl-5-(thiophen-2-yl)-1,2,6-thiadiazinane-3-carboxamide 1,1-dioxide] as the compound, how does the EC50 read?
Answer: The EC50 was less than 1 µM.

Question: `CN1C(C(=O)Nc2ccc(F)c(Br)c2)CC(c2ccc(F)cc2)NS1(=O)=O` (racemic) [HBV-CSU-211, Cis-N-(3-Bromo-4-fluorophenyl)-5-(4-fluorophenyl)-2-methyl-1,2,6-thiadiazinane-3-carboxamide 1,1-dioxide] was tested. Which EC50 did it give?
Answer: The EC50 was less than 1 µM.

Question: With `CN1[C@@H](C(=O)Nc2ccc(F)c(Cl)c2)C[C@@H](c2ncc(Br)s2)NS1(=O)=O` [HBV-CSU-122-ISO-II, Cis-5-(5-bromothiazol-2-yl)-N-(3-chloro-4-fluorophenyl)-2-methyl-1,2,6-thiadiazinane-3-carboxamide 1,1-dioxide] as the compound, how does the EC50 read?
Answer: The EC50 was 1 to 5 µM.

Question: `[2H]C1[C@]([2H])(C(=O)Nc2ccc(F)c(Cl)c2)N(C([2H])([2H])[2H])S(=O)(=O)N[C@]1([2H])c1ccc(-c2cnn(C([2H])([2H])[2H])c2)s1` (stereo in doubt) [HBV-CSU-379-ISO-II, Cis-N-(3-Chloro-4-fluorophenyl)-2-(methyl-d3)-5-(5-(1-(methyl-d3)-1H-pyrazol-4-yl)thiophen-2-yl)-1,2,6-thiadiazinane-3,4,5-d3-3-carboxamide 1,1-dioxide] was tested. Which EC50 did it give?
Answer: Its EC50 is less than 1 µM.

Question: How did the EC50 turn out when `CN1C(C(=O)Nc2ccc(F)c(Cl)c2)CC(c2ccc(Cl)cc2)NS1(=O)=O` (stereo not drawn) [HBV-CSU-265, Cis-N-(3-Chloro-4-fluorophenyl)-5-(4-chlorophenyl)-2-methyl-1,2,6-thiadiazinane-3-carboxamide 1,1-dioxide] was run?
Answer: Its EC50 is less than 1 µM.

Question: For `COCCN1[C@@H](C(=O)Nc2ccc(F)c(Cl)c2)C[C@@H](c2cccs2)NS1(=O)=O` [HBV-CSU-025-ISO-I, Cis-N-(3-chloro-4-fluorophenyl)-2-(2-methoxyethyl)-5-(thiophen-2-yl)-1,2,6-thiadiazinane-3-carboxamide 1,1-dioxide], which EC50 is on record?
Answer: The EC50 was greater than 5 µM.

Question: How did the EC50 turn out when `CN1C(C(=O)Nc2ccc(F)c(Cl)c2)CC(c2ccc(Br)cc2)NS1(=O)=O` (stereo not drawn) [HBV-CSU-202, Cis-5-(4-Bromophenyl)-N-(3-chloro-4-fluorophenyl)-2-methyl-1,2,6-thiadiazinane-3-carboxamide 1,1-dioxide] was run?
Answer: Its EC50 is less than 1 µM.

Question: `CN1[C@@H](C(=O)Nc2ccc(F)c(Cl)c2)C[C@@H](c2cc(-c3ncnn3C)cs2)NS1(=O)=O` [HBV-CSU-327-ISO-II, Cis-N-(3-Chloro-4-fluorophenyl)-2-methyl-5-(4-(1-methyl-1H-1,2,4-triazol-5-yl)thiophen-2-yl)-1,2,6-thiadiazinane-3-carboxamide 1,1-dioxide] was tested. Which EC50 did it give?
Answer: Its EC50 is 1 to 5 µM.

Question: `CN1C(C(=O)Nc2ccc(F)c(Cl)c2)CC(c2ccc(C#N)cc2)NS1(=O)=O` (racemic) [HBV-CSU-213, Cis-N-(3-chloro-4-fluorophenyl)-5-(4-cyanophenyl)-2-methyl-1,2,6-thiadiazinane-3-carboxamide 1,1-dioxide] was tested. Which EC50 did it give?
Answer: Its EC50 is less than 1 µM.

Question: For `Cc1cnc([C@H]2C[C@@H](C(=O)Nc3ccc(F)c(Cl)c3)N(C)S(=O)(=O)N2)s1`, which EC50 is on record?
Answer: The EC50 was less than 1 µM.

Question: For `CN1[C@H](C(=O)Nc2ccc(F)c(Cl)c2)C[C@H](c2cc(-c3cncn3C)cs2)NS1(=O)=O` [HBV-CSU-285-ISO-I, Cis-N-(3-Chloro-4-fluorophenyl)-2-methyl-5-(4-(1-methyl-1H-imidazol-5-yl)thiophen-2-yl)-1,2,6-thiadiazinane-3-carboxamide 1,1-dioxide], which EC50 is on record?
Answer: Its EC50 is less than 1 µM.

Question: How did the EC50 turn out when `CN1[C@H](C(=O)Nc2ccc(F)c(Cl)c2)C[C@H](c2ccc(Br)s2)NS1(=O)=O` [HBV-CSU-114-ISO-I, (3S,5R)-5-(5-Bromothiophen-2-yl)-N-(3-chloro-4-fluorophenyl)-2-methyl-1,2,6-thiadiazinane-3-carboxamide 1,1-dioxide] was run?
Answer: Its EC50 is less than 1 µM.

Question: With `CCN(CC)CCCN1[C@H](C(=O)Nc2ccc(F)c(Cl)c2)C[C@H](c2nccs2)NS1(=O)=O` (relative stereo) [HBV-CSU-101-ISO-II, Cis-N-(3-Chloro-4-fluorophenyl)-2-(3-(diethylamino)propyl)-5-(thiazol-2-yl)-1,2,6-thiadiazinane-3-carboxamide 1,1-dioxide] as the compound, how does the EC50 read?
Answer: Its EC50 is greater than 5 µM.

Question: How did the EC50 turn out when `Cc1c(-c2ccc([C@H]3C[C@@H](C(=O)Nc4ccc(F)c(Cl)c4)N(C)S(=O)(=O)N3)s2)cnn1C` [HBV-CSU-312-ISO-I, Cis-N-(3-chloro-4-fluorophenyl)-5-(5-(1,5-dimethyl-1H-pyrazol-4-yl)thiophen-2-yl)-2-methyl-1,2,6-thiadiazinane-3-carboxamide 1,1-dioxide] was run?
Answer: The EC50 was less than 1 µM.

Question: Which EC50 does the source give for `CN1C(C(=O)Nc2ccc(F)c(Cl)c2)CC(c2nc3ccccc3s2)NS1(=O)=O` (racemic) [HBV-CSU-364, Cis-5-(benzo[d]thiazol-2-yl)-N-(3-chloro-4-fluorophenyl)-2-methyl-1,2,6-thiadiazinane-3-carboxamide 1,1-dioxide] here?
Answer: The EC50 was less than 1 µM.

Question: For `N#CCN1[C@H](C(=O)Nc2ccc(F)c(Cl)c2)C[C@H](c2nccs2)NS1(=O)=O` [HBV-CSU-093-ISO-I, Cis-N-(3-Chloro-4-fluorophenyl)-2-(cyanomethyl)-5-(thiazol-2-yl)-1,2,6-thiadiazinane-3-carboxamide 1,1-dioxide], which EC50 is on record?
Answer: The EC50 was 1 to 5 µM.

Question: Which EC50 does the source give for `CN1C(C(=O)Nc2ccc(F)c(Cl)c2)CC(c2ccc(-c3cccs3)s2)NS1(=O)=O` (stereo not drawn) [HBV-CSU-162, Cis-N-5-([2,2′-bithiophen]-5-yl)-N-(3-chloro-4-fluorophenyl)-2-methyl-1,2,6-thiadiazinane-3-carboxamide 1,1-dioxide] here?
Answer: Its EC50 is less than 1 µM.

Question: Which EC50 does the source give for `CN1[C@@H](C(=O)Nc2ccc(F)c(Cl)c2)C[C@@H](c2ncc(-c3cn(C)cn3)s2)NS1(=O)=O` [HBV-CSU-276-ISO-II, Cis-N-(3-Chloro-4-fluorophenyl)-2-methyl-5-(5-(1-methyl-1H-imidazol-4-yl)thiazol-2-yl)-1,2,6-thiadiazinane-3-carboxamide 1,1-dioxide] here?
Answer: Its EC50 is greater than 5 µM.

Question: How did the EC50 turn out when `CN1[C@H](C(=O)Nc2ccc(F)c(Cl)c2)C[C@H](c2ccc(-c3ccc(F)cn3)s2)NS1(=O)=O` [HBV-CSU-242-ISO-I, Cis-N-(3-chloro-4-fluorophenyl)-5-(5-(5-fluoropyridin-2-yl)thiophen-2-yl)-2-methyl-1,2,6-thiadiazinane-3-carboxamide 1,1-dioxide] was run?
Answer: Its EC50 is less than 1 µM.

Question: Which EC50 does the source give for `CN1[C@@H](C(=O)Nc2ccc(F)c(Cl)c2)C[C@@H](c2ccc(C(F)(F)F)cc2)NS1(=O)=O` (stereo in doubt) [HBV-CSU-217-ISO-II, Cis-N-(3-Chloro-4-fluorophenyl)-2-methyl-5-(4-(trifluoromethyl)phenyl)-1,2,6-thiadiazinane-3-carboxamide 1,1-dioxide] here?
Answer: The EC50 was less than 1 µM.

Question: Which EC50 does the source give for `O=C(Nc1ccc(F)c(Cl)c1)[C@H]1C[C@@H](c2nccs2)NS(=O)(=O)N1CCCO` [HBV-CSU-078-ISO-II, Cis-N-(3-Chloro-4-fluorophenyl)-2-(3-hydroxypropyl)-5-(thiazol-2-yl)-1,2,6-thiadiazinane-3-carboxamide 1,1-dioxide] here?
Answer: The EC50 was greater than 5 µM.

Question: For `COCCN1[C@@H](C(=O)Nc2ccc(F)c(Cl)c2)C[C@@H](c2nccs2)NS1(=O)=O` [HBV-CSU-058-ISO-I, Cis-N-(3-chloro-4-fluorophenyl)-2-(2-methoxyethyl)-5-(thiazol-2-yl)-1,2,6-thiadiazinane-3-carboxamide 1,1-dioxide], which EC50 is on record?
Answer: Its EC50 is greater than 5 µM.

Question: `COc1ccc(-c2csc(C3CC(C(=O)Nc4ccc(F)c(Cl)c4)N(C)S(=O)(=O)N3)c2)cc1` (stereo not shown) [HBV-CSU-241] was tested. Which EC50 did it give?
Answer: Its EC50 is less than 1 µM.

Question: With `CN1[C@@H](C(=O)Nc2ccc(F)c(Cl)c2)C[C@@H](c2cc(-c3ccc(C(F)(F)F)nc3)cs2)NS1(=O)=O` [HBV-CSU-166-ISO-II, Cis-N-(3-chloro-4-fluorophenyl)-2-methyl-5-(4-(6-(trifluoromethyl)pyridin-3-yl)thiophen-2-yl)-1,2,6-thiadiazinane-3-carboxamide 1,1-dioxide] as the compound, how does the EC50 read?
Answer: Its EC50 is greater than 5 µM.
